Assay results taken from paper PMC9409043, “Serotonin 5-HT6 Receptor Ligands and Butyrylcholinesterase Inhibitors Displaying Antioxidant Activity—Design, Synthesis and Biological Evaluation of Multifunctional Agents against Alzheimer’s Disease” (International Journal of Molecular Sciences, 2022).
Where “and” joins values, the source holds several entries; their conditions need not be identical. Identical values can stand only once.

Experiments:
[1] = tested on: patients with moderate Alzheimer’s dementia; settings: phase II, adjunct to cholinesterase inhibitors, moderate Alzheimer’s dementia ref 14, 15; cited from earlier work
[2] = target: T1, BuChE isolated from human plasma (hBuChE) (Homo sapiens, UniProt P06276); assay: biochemical; assay type: biochemical; settings: for IC50: mean ± SEM of at least three experiments
T1 construct: BuChE isolated from human plasma (hBuChE); tissue Vivonics (Bedford, MA, USA), donated; host or cells: human plasma
T1 sequence (P06276 29-602): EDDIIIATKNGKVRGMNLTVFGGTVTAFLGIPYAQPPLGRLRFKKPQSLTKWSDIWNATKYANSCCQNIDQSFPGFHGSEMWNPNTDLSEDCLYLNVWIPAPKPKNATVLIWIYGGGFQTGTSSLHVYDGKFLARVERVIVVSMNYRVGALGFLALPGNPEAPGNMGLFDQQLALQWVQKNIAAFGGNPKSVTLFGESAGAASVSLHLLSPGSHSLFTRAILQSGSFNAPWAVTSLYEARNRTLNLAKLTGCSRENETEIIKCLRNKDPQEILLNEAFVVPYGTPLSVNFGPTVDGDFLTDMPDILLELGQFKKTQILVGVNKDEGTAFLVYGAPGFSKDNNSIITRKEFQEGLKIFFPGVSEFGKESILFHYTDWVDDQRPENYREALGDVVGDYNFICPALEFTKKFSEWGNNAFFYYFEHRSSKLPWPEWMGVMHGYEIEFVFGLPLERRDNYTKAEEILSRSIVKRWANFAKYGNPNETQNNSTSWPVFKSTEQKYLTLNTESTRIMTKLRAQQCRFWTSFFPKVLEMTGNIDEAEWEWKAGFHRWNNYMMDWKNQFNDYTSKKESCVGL
Experimental: (§1) 5-HT6R binding affinity and cholinesterase (AChE/BuChE) inhibitory activity. […] Their affinities for recombinant human 5-HT6 receptors (h5-HT6R) were tested in a radioligand binding assay and the inhibitory potencies against human recombinant AChE (hAChE) and BuChE isolated from human plasma (hBuChE) in the spectrophotometric Ellman’s assay.
(§2) The assay was based on spectrophotometric Ellman’s method and was performed in 96-well microplates with the reagents purchased from Sigma-Aldrich (Steinheim, Germany) according to the previously described procedure. hBuChE was kindly donated by Vivonics (Bedford, MA, USA). […] After 5 minutes of the enzymatic reaction, the changes in absorbance were measured at 412 nm, using a microplate reader (SPECTROstar Nano; BMG Labtech, Ortenberg, Germany). First, compounds were tested at the screening concentration of 10 µM. Based on the equation 100 − (S/B) × 100 (where S and B were the respective enzyme activities with and without the test sample, respectively) the percentage inhibition of each enzyme for each compound was calculated. […] The IC50 values were calculated using nonlinear regression (GraphPad Prism 5; GraphPad Software, San Diego, CA, USA) by plotting the residual enzyme activities against the applied inhibitor concentration. […] All experiments were performed in triplicate.

[3] = ABTS free radical scavenging assay
Text: Antioxidant activity. As mentioned before, oxidative stress is one of the components of AD pathomechanism and is characterised by an imbalance in the production of ROS. One of the mechanisms by which antioxidants reduce the concentration of ROS and therefore prevent or slow the cell damage caused by free radicals is scavenging them. Thus, we tested the scavenging ability of compounds 12–19 in the spectrophotometric ABTS assay that we used before. In this assay, the ability of compounds to scavenge ABTS^• radicals, which are generated from 2,2’-azino-bis(3-ethylbenzothiazoline-6-sulphonic acid) (ABTS), is measured. We tested the compounds at three concentrations: 30, 75 and 150 μM after 5, 30 and 60 min of incubation using Trolox, a water-soluble vitamin E analogue, as a reference (Table S1 in Supporting information).
The spectrophotometric ABTS assay was performed in 96-well microplates with the reagents purchased from Sigma-Aldrich (Steinheim, Germany) according to the previously described procedure. Stock solutions of the tested compounds (6.4 mM) and reagents were prepared in DMSO and water, respectively. 2,2′-Azino-bis(3-ethylbenzothiazoline-6-sulfonic acid) free radical (ABTS^•) was prepared by mixing the stock solution of ABTS (7 mM) and […] (2.45 mM) in ratio 1:1. The mixture was kept in the dark at 4 °C for 16 h. The obtained solution of (ABTS^•) was diluted with water 20 times. Then, the test compound or water or mixture of DMSO/water in the appropriate ratio (0.02 mL) was added to ABTS^• solution (0.18 mL). The three concentrations of the test compounds and Trolox were tested in triplicate: 0.15, 0.075 and 0.03 mM. Changes in absorbance were measured at 734 nm after 5, 30 and 60 min, using a microplate reader (SPECTROstar Nano; BMG Labtech, Ortenberg, Germany). Based on the equation ((A0 − A)/A0) × 100% (where A0 and A were the absorbances without and with the test compound, respectively) the percentage of free radical scavenging activity was calculated. The results are presented as mean ± SD.

CYP2D6 = target: T2, CYP2D6 (Homo sapiens, UniProt P10635); assay: CYP P450-Glo luminescence assay, CYP2D6; assay type: in vitro ADME
T2 construct: purchased Promega, Madison, WI, USA
T2 sequence (P10635 whole entry): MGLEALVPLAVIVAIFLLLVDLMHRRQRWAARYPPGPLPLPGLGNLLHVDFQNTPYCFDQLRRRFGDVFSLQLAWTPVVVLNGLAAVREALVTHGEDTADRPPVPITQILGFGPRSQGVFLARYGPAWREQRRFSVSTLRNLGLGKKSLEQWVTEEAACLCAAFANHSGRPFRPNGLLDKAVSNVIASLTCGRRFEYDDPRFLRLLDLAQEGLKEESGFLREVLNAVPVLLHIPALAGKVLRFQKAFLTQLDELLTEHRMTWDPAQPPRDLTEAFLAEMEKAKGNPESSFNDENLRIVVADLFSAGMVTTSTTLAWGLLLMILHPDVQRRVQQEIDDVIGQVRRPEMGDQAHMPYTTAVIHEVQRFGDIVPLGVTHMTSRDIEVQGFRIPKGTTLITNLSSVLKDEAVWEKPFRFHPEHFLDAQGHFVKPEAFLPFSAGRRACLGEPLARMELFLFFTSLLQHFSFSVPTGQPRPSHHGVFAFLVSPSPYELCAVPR
Text: Influence on CYP3A4 and CYP2D6 activity. Possible drug–drug interactions (DDIs) are an important issue for elderly patients, who are usually on multiple medications. They may result, among other things, from the interactions (inhibition or activation) of the cytochrome P450 isoenzymes, especially CYP3A4 and CYP2D6, which play the most significant role in drugs’ biotransformation. Therefore, to predict the potential influence of the studied compounds (14, 16 and 19) on the metabolism of other drugs, we used the CYP450 inhibition luminescence assay (Promega). […]. […] […]. […] […].
The influence on CYP 3A4 and 2D6 activity was estimated by respective luminescent CYP P450-Glo™ assay (Promega®, Madison, WI, USA). The compounds were tested in the concentration range of 0.1–25 µM. The results were compared to the respective reference CYP inhibitors: ketoconazole and quinidine.

[4] = target: T3, human recombinant AChE (hAChE) (Homo sapiens, UniProt P22303); assay: biochemical; settings: for IC50: mean ± SEM of at least three experiments
T3 construct: purchased Sigma-Aldrich (Steinheim, Germany)
T3 sequence (P22303 32-614): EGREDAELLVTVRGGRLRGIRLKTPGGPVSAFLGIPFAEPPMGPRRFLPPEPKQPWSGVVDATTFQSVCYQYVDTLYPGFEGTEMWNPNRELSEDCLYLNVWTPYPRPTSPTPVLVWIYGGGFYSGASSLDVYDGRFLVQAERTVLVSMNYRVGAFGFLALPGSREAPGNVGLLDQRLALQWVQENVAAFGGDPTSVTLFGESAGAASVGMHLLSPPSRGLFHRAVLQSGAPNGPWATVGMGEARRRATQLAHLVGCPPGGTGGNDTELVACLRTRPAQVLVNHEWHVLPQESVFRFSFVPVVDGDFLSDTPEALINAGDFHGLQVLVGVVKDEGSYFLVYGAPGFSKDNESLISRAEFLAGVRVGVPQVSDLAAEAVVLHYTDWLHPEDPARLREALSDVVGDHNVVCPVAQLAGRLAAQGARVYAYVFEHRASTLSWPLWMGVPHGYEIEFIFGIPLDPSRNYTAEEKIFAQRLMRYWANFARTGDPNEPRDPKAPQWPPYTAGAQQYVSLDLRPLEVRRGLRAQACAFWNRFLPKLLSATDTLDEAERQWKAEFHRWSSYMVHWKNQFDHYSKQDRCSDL
Experimental: as §1, §2

[5] = Metabolic stability in human liver microsomes; assay type: in vitro ADME; settings: for HLMs % Left: human, 2 h, pH 7.4
Experimental: Metabolic stability. […] For detailed results, including UPLC chromatograms and MS spectra, see the Supporting information (Figures S1–S16).
The metabolic stability was evaluated by incubation of compounds with human liver microsomes (Sigma-Aldrich, St. Louis, MO, USA) in 10 mM Tris–HCl buffer (pH 7.4) at 37 °C for 120 min in the presence of NADPH Regeneration System (Promega, Madison, WI, USA). The percentage of the remaining substrate and the most probable metabolic pathways were estimated by UPLC-MS analyses of the reaction mixtures.

[6] = Metabolic stability in mouse liver microsomes; assay type: in vitro ADME; settings: 2 h, pH 7.4
human 5-HT6 receptor = target: T4, human 5-HT6 receptor (Homo sapiens, UniProt P50406); assay: 5-HT6 receptor radioligand binding assay ([3H]-LSD, CHO-K1 membranes)
T4 construct: purchased PerkinElmer; host or cells: CHO-K1 cells, stably transfected (membrane preparation)
T4 sequence (P50406 whole entry): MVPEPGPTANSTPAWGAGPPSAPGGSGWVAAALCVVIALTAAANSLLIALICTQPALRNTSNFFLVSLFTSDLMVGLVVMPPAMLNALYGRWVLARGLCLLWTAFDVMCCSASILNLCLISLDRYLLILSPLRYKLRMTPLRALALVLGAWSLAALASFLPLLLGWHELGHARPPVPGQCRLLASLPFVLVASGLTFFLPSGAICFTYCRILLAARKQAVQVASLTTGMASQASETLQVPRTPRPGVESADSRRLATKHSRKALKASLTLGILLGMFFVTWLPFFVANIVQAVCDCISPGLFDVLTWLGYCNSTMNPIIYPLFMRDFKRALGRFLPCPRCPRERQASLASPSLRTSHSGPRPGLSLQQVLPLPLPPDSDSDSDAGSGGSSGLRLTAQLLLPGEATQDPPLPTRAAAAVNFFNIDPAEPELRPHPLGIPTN
Experimental: 5-HT6R binding affinity and cholinesterase (AChE/BuChE) inhibitory activity. We evaluated the pharmacological properties of the final compounds 12–19 in vitro according to the previously described, well-established protocols. Their affinities for recombinant human 5-HT6 receptors (h5-HT6R) were tested in a radioligand binding assay and the inhibitory potencies against human recombinant AChE (hAChE) and BuChE isolated from human plasma (hBuChE) in the spectrophotometric Ellman’s assay. […].
We prepared 10 mM of stock solutions of tested compounds in DMSO. Serial dilutions of compounds were prepared in a 96-well microplate in assay buffers using the automated pipetting system epMotion 5070 (Eppendorf). Each compound was tested in 8 concentrations from 10^−5 to 10^−12 M (final concentration).
The radioligand binding assay was performed using membranes from CHO-K1 cells stably transfected with the human 5-HT6 receptor (PerkinElmer) according to the previously described procedure. All assays were carried out in duplicates. We prepared 50 µL working solution of the tested compounds, 50 µL [^3H]-LSD (final concentration 2.5 nM) and 150 µL diluted membranes (15 µg protein per well) in assay buffer (50 mM Tris, pH 7.4, 10 mM MgCl2, 0.1 mM EDTA) and transferred them to polypropylene 96-well microplates using a 96-well pipetting station Rainin Liquidator (MettlerToledo). Methiothepin (10 μM) was used to define nonspecific binding. The microplate was covered with sealing tape, mixed and incubated for 60 min at 27 °C. The reaction was terminated by rapid filtration through GF/B filter mate presoaked with 0.5% polyethyleneimine for 30 min. Ten rapid washes with 200 µL 50 mM Tris buffer (4 °C, pH 7.4) were performed using the automated harvester system Harvester-96 MACH III FM (Tomtec). The filter mates were dried at 37 °C in a forced air fan incubator and then solid scintillator MeltiLex was melted on filter mates at 90 °C for 5 min. Radioactivity was counted in MicroBeta2 scintillation counter (PerkinElmer). Data were fitted to a one-site curve-fitting equation with Prism 6 (GraphPad Software) and Ki values were estimated from the Cheng−Prusoff equation.

| SMILES | IC50 [2] | % of ABTS• reduction ± SD ([3]; 30 µM, 5 min) [%] | % of ABTS• reduction ± SD ([3]; 30 µM, 30 min) [%] | % of ABTS• reduction ± SD ([3]; 30 µM, 60 min) | % of ABTS• reduction ± SD ([3]; 75 µM, 5 min) [%] | % of ABTS• reduction ± SD ([3]; 75 µM, 30 min) [%] | % of ABTS• reduction ± SD ([3]; 75 µM, 60 min) [%] | % of ABTS• reduction ± SD ([3]; 150 µM, 5 min) [%] | % of ABTS• reduction ± SD ([3]; 150 µM, 30 min) [%] | % of ABTS• reduction ± SD ([3]; 150 µM, 60 min) | IC50 [4] [nM] | Ki (human 5-HT6 receptor) [nM] | further results |
| --- | --- | --- | --- | --- | --- | --- | --- | --- | --- | --- | --- | --- | --- |
| Fc1ccc2c(CCNCc3cccc(OCC(F)(F)C(F)F)c3)c[nH]c2c1 [Idalopirdine] |  |  |  |  |  |  |  |  |  |  |  |  | effects on cognition [1]: positive effects on cognition |
| O=S(=O)(c1ccccc1)N1CCc2c(OCCNCCCC3CCN(Cc4ccccc4)CC3)cccc21 [Compound 16, 3-(1-Benzylpiperidin-4-yl)-N-(2-((1-(phenylsulfonyl)indolin-4-yl)oxy)ethyl)propan-1-amine] | 487 ± 12 nM | 7±0 | 7±1 | 7±1% | 7±2 | 9±2 | 11±3 | 10±0 | 19±1 | 24±1% | 821 ± 14 | 598 ± 19 | inhibition at 0.1 µM (CYP2D6; human, CYP2D6 enzyme in the luminescent P450-Glo assay (Promega), 0.1 µM): ~20%; main metabolic pathway [5]: oxidative deamination; HLMs % Left [5]: 84.40%; MLMs % Left [6]: 84.48% |
| O=c1[nH]c2c(OCCNCCCC3CCN(Cc4ccccc4)CC3)cccc2n1Cc1ccccc1 [Compound 19, 1-Benzyl-4-(2-((3-(1-benzylpiperidin-4-yl)propyl)amino)ethoxy)-1,3-dihydro-2H-benzo[d]imidazol-2-one] | 613 ± 11 nM | 10±0 | 17±0 | 22±1% | 14±1 | 24±2 | 30±2 | 25±4 | 37±5 | 43±4% | 544 ± 15 | 480 ± 48 | influence on the activity of CYP2D6 (CYP2D6; 0.1 µM): did not influence the activity of CYP2D6; influence on the activity of CYP2D6 (CYP2D6; 1 µM): CYP2D6-activating effect; main metabolic pathway [5]: oxidative deamination; HLMs % Left [5]: 94.00%; MLMs % Left [6]: 79.38% |
| O=S(=O)(c1ccccc1)n1ccc2c(OCCNCC3CCN(Cc4ccccc4)CC3)cccc21 [Compound 12, N-((1-Benzylpiperidin-4-yl)methyl)-2-((1-(phenylsulfonyl)-1H-indol-4-yl)oxy)ethan-1-amine] | 2300 nM and 2320 nM | 8±1 | 9±0 | 10±0% | 13±0 | 19±0 | 24±1 | 20±3 | 30±3 | 39±4% | 3150 ± 81 | 21 ± 1 |  |
| O=S(=O)(c1ccccc1)c1cnc2c(N3CCNCC3)cccc2c1 [intepirdine] |  |  |  |  |  |  |  |  |  |  |  |  | effects on cognition [1]: positive effects on cognition |
| O=c1[nH]c2c(OCCNCC3CCN(Cc4ccccc4)CC3)cccc2n1Cc1ccccc1 [Compound 17, 1-Benzyl-4-(2-(((1-benzylpiperidin-4-yl)methyl)amino)ethoxy)-1,3-dihydro-2H-benzo[d]imidazol-2-one] |  | 8±2 | 14±3 | 18±4% | 12±2 | 22±2 | 27±1 | 19±2 | 32±2 | 39±2% |  | 136 ± 22 | inhibition at 10 µM ([2]; 10 µM concentration): 44.3%; inhibition at 10 µM ([4]; 10 µM concentration): 39.5% |
| O=S(=O)(c1ccccc1)n1ccc2c(OCCNCCC3CCN(Cc4ccccc4)CC3)cccc21 [Compound 13, 2-(1-Benzylpiperidin-4-yl)-N-(2-((1-(phenylsulfonyl)-1H-indol-4-yl)oxy)ethyl)ethan-1-amine] | 1110 ± 31 nM | 5±1 | 5±1 | 6±1% | 9±1 | 11±1 | 13±1 | 20±0 | 29±1 | 34±1% | 2260 ± 91 | 17 ± 2 |  |
| Cc1c(C)c2c(c(C)c1O)CCC(C)(C(=O)O)O2 (centres unmarked) [Trolox, reference compound] |  | 59±2 | 59±2 | 59±2% and 59% | 100±0 | 100±0 | 100 | 100±0 | 100±0 | 100±0% and 100% |  |  |  |
